In brackets after ≈: the same amount, converted by molar mass.
Experiments:
Assay in all cases: Agar dilution method microbicidal test
Type in all cases: cell-based
[1] = test system: Bacillus subtilis ATCC6633; details: Bacillus subtilis ATCC 6633; further: key: +: grew; −: did not grow
Method: (§1) As microbicidal test method for trans-p-coumaric acid, 3-hydroxypyridine, p-hydroxybenzaldehyde and vanillin, the agar dilution method was employed.
(§2) In agar dilution method, a solution in which a sample is dissolved is serially diluted several times, and each of the diluted sample solutions is mixed with agar medium to prepare plate agars having various sample concentration. Then bacteria is inoculated onto the plate agars. In cases where the sample has a microbicidal activity, the growth of the bacteria on the plates can be inhibited. The lowest concentration which can inhibit the growth of the bacteria is referred to as Minimum Inhibitory Concentration (MIC), thereby judging the degree of a microbicidal activity of the sample.
(§3) First, 400 mg of sample was dissolved in 1 mL of DMSO to prepare 400 mg/mL sample solution. Then 0.5 mL of this 400 mg/mL sample solution was diluted 2-fold to prepare 200 mg/mL sample solution. In the same manner, sample solutions of 100 mg/mL, 50.0 mg/mL, and 25.0 mg/mL were prepared. In addition, 300 mg/mL sample solution was prepared. Thereafter, 0.2 mL of these sample solutions each was mixed with 19.8 mL of BHI (Brain Heart Infusion Agar, Becton Dickinson, MD) medium, thereby preparing agar plates having the sample concentration of 4.0 mg/mL, 3.0 mg/mL, 2.0 mg/mL, 1.0 mg/mL, 0.5 mg/mL, and 0.25 mg/mL in dishes. […] Sterilized water was used for dissolving catechin, because catechin was insoluble in DMSO.
(§4) As test bacteria, 13 kinds of bacteria, i.e., Streptococcus pneumoniae, Streptococcus pyogenes, Enterococcus faecalis, Staphylococcus aureus, Escherichia coli, Salmonella sp., Yersinia enterocolitica, Vibrio parahaemolyticus, Pseudomonas aeruginosa, Bacillus cereus, Bacillus subtilis MB-32, Bacillus subtilis ATCC6633, and Candida sp., were used. These bacteria each was mixed with 2 mL of sterilized MHB^R liquid medium (Mueller Hinton Broth^R, Becton Dickinson, MD) to prepare bacterial suspension having turbidity 1 (bacterial concentration 10^8/mL). Previously, small test tubes were set into each cell of a grating and sterilized, and 1 mL of 13 bacterial suspensions were added into the small test tubes set in the grating, respectively. By using a microplanter (SAKUMA, model: MIT-P), 10 μL aliquot was collected from each test tube set in the grating and transferred to other test tube, and the transferred bacterial suspensions were diluted 100-fold (bacterial concentration 10^6/mL).
(§5) By using the microplanter, 10 μL (bacterial number […]) of this bacterial suspension was inoculated onto the plates containing the sample solution of various concentrations. The plates were incubated for 18 hours in an incubator at 37° C., and then a microbicidal activity of each compound was assessed.

[2] = test system: Candida sp. On Growth on agar plate: key: +: grew; −: did not grow.
Method: as §1, §2, §3, §4, §5

[3] = test system: Vibrio parahaemolyticus; on Growth on agar plate: key: +: grew; −: did not grow
Method: as §1, §2, §3, §4, §5

[4] = test system: Yersinia enterocolitica; on Growth on agar plate: key: +: grew; −: did not grow
Method: as §1, §2, §3, §4, §5

[5] = test system: Streptococcus pyogenes; on Growth on agar plate: key: +: grew; −: did not grow
Method: as §1, §2, §3, §4, §5

[6] = test system: Enterococcus faecalis; further: key: +: grew; −: did not grow
Method: as §1, §2, §3, §4, §5

[7] = test system: Pseudomonas aeruginosa; on Growth on agar plate: key: +: grew; −: did not grow
Method: as §1, §2, §3, §4, §5

[8] = test system: Staphylococcus aureus; on Growth on agar plate: key: +: grew; −: did not grow
Method: as §1, §2, §3, §4, §5

[9] = test system: Escherichia coli; further: key: +: grew; −: did not grow
Method: as §1, §2, §3, §4, §5

[10] = test system: Streptococcus pneumoniae; on Growth on agar plate: key: +: grew; −: did not grow
Method: as §1, §2, §3, §4, §5

[11] = test system: Bacillus cereus; further: key: +: grew; −: did not grow
Method: as §1, §2, §3, §4, §5

[12] = test system: Salmonella sp. Further: key: +: grew; −: did not grow.
Method: as §1, §2, §3, §4, §5

[13] = test system: Bacillus subtilis MB-32; further: key: +: grew; −: did not grow
Method: as §1, §2, §3, §4, §5

[14] = BHI agar, 37° C., 18 hours, read-out: MIC

Oc1cccnc1 [3-Hydroxypyridine, 3-hydroxypyridine]
Growth on agar plate ([1]; 0.25 mg/mL): +
Growth on agar plate ([1]; 0.5 mg/mL): +
Growth on agar plate ([1]; 1.0 mg/mL): +
Growth on agar plate ([1]; 2.0 mg/mL): +
Growth on agar plate ([1]; 3.0 mg/mL): +
Growth on agar plate ([1]; 4.0 mg/mL): +
activity (in words) [2]: had an activity
Growth on agar plate ([2]; 0.25 mg/mL): +
Growth on agar plate ([2]; 0.5 mg/mL): +
Growth on agar plate ([2]; 1.0 mg/mL): +
Growth on agar plate ([2]; 2.0 mg/mL): +
Growth on agar plate ([2]; 3.0 mg/mL): +
Growth on agar plate ([2]; 4.0 mg/mL): −
MIC [2, 14]: 4000 µg/mL (≈ 42.1 mM)
Growth on agar plate ([3]; 0.25 mg/mL): +
Growth on agar plate ([3]; 0.5 mg/mL): +
Growth on agar plate ([3]; 1.0 mg/mL): +
Growth on agar plate ([3]; 2.0 mg/mL): +
Growth on agar plate ([3]; 3.0 mg/mL): +
Growth on agar plate ([3]; 4.0 mg/mL): −
MIC [3, 14]: 4000 µg/mL (≈ 42.1 mM)
activity (in words) [4]: had an activity
Growth on agar plate ([4]; 0.25 mg/mL): +
Growth on agar plate ([4]; 0.5 mg/mL): +
Growth on agar plate ([4]; 1.0 mg/mL): +
Growth on agar plate ([4]; 2.0 mg/mL): +
Growth on agar plate ([4]; 3.0 mg/mL): +
Growth on agar plate ([4]; 4.0 mg/mL): −
MIC [4, 14]: 4000 µg/mL (≈ 42.1 mM)
activity (in words) [5]: had an activity
Growth on agar plate ([5]; 0.25 mg/mL): +
Growth on agar plate ([5]; 0.5 mg/mL): +
Growth on agar plate ([5]; 1.0 mg/mL): +
Growth on agar plate ([5]; 2.0 mg/mL): +
Growth on agar plate ([5]; 3.0 mg/mL): +
Growth on agar plate ([5]; 4.0 mg/mL): −
MIC [5, 14]: 4000 µg/mL (≈ 42.1 mM)
Growth on agar plate ([6]; 0.25 mg/mL): +
Growth on agar plate ([6]; 0.5 mg/mL): +
Growth on agar plate ([6]; 1.0 mg/mL): +
Growth on agar plate ([6]; 2.0 mg/mL): +
Growth on agar plate ([6]; 3.0 mg/mL): +
Growth on agar plate ([6]; 4.0 mg/mL): +
activity (in words) [7]: had an activity
Growth on agar plate ([7]; 0.25 mg/mL): +
Growth on agar plate ([7]; 0.5 mg/mL): +
Growth on agar plate ([7]; 1.0 mg/mL): +
Growth on agar plate ([7]; 2.0 mg/mL): +
Growth on agar plate ([7]; 3.0 mg/mL): +
Growth on agar plate ([7]; 4.0 mg/mL): −
MIC [7, 14]: 4000 µg/mL (≈ 42.1 mM)
activity (in words) [8]: had an activity
Growth on agar plate ([8]; 0.25 mg/mL): +
Growth on agar plate ([8]; 0.5 mg/mL): +
Growth on agar plate ([8]; 1.0 mg/mL): +
Growth on agar plate ([8]; 2.0 mg/mL): +
Growth on agar plate ([8]; 3.0 mg/mL): +
Growth on agar plate ([8]; 4.0 mg/mL): −
MIC [8, 14]: 4000 µg/mL (≈ 42.1 mM)
Growth on agar plate ([9]; 0.25 mg/mL): +
Growth on agar plate ([9]; 0.5 mg/mL): +
Growth on agar plate ([9]; 1.0 mg/mL): +
Growth on agar plate ([9]; 2.0 mg/mL): +
Growth on agar plate ([9]; 3.0 mg/mL): +
Growth on agar plate ([9]; 4.0 mg/mL): +
activity (in words) [10]: had an activity
Growth on agar plate ([10]; 0.25 mg/mL): +
Growth on agar plate ([10]; 0.5 mg/mL): +
Growth on agar plate ([10]; 1.0 mg/mL): +
Growth on agar plate ([10]; 2.0 mg/mL): +
Growth on agar plate ([10]; 3.0 mg/mL): +
Growth on agar plate ([10]; 4.0 mg/mL): −
MIC [10, 14]: 4000 µg/mL (≈ 42.1 mM)
Growth on agar plate ([11]; 0.25 mg/mL): +
Growth on agar plate ([11]; 0.5 mg/mL): +
Growth on agar plate ([11]; 1.0 mg/mL): +
Growth on agar plate ([11]; 2.0 mg/mL): +
Growth on agar plate ([11]; 3.0 mg/mL): +
Growth on agar plate ([11]; 4.0 mg/mL): +
Growth on agar plate ([12]; 0.25 mg/mL): +
Growth on agar plate ([12]; 0.5 mg/mL): +
Growth on agar plate ([12]; 1.0 mg/mL): +
Growth on agar plate ([12]; 2.0 mg/mL): +
Growth on agar plate ([12]; 3.0 mg/mL): +
Growth on agar plate ([12]; 4.0 mg/mL): +
Growth on agar plate ([13]; 0.25 mg/mL): +
Growth on agar plate ([13]; 0.5 mg/mL): +
Growth on agar plate ([13]; 1.0 mg/mL): +
Growth on agar plate ([13]; 2.0 mg/mL): +
Growth on agar plate ([13]; 3.0 mg/mL): +
Growth on agar plate ([13]; 4.0 mg/mL): +
